The source made the active and inactive calls. No cut-off for these calls is given here.
How the values were obtained:
Type in all cases: functional
ATRA-resistant NB4-LR2 = assay: Cell cycle arrest in human ATRA-resistant NB4-LR2 cells assessed as accumulation of cells at G2/M phase at higher concentration by DAPI staining based flow cytometric analysis
NB-4 [1] = assay: Cell cycle arrest in human NB4 cells assessed as accumulation of cells at G2/M phase at 2 uM incubated for 3 to 12 hrs by DAPI staining based flow cytometric analysis; settings: time 3-12 hrs
NB-4 [2] = assay: Cell cycle arrest in human NB4 cells assessed as accumulation of cells at S phase at 0.5 uM incubated for 24 hrs by DAPI staining based flow cytometric analysis (reference value: 26 %)
NB-4 [3] = assay: Cell cycle arrest in human NB4 cells assessed as accumulation of cells at G0/G1 phase at 2 uM incubated for 24 hrs by DAPI staining based flow cytometric analysis (reference value: 48 %)
NB-4 [4] = assay: Cell cycle arrest in human NB4 cells assessed as accumulation of cells at G2/M phase at 2 uM incubated for 24 hrs by DAPI staining based flow cytometric analysis (reference value: 23 %)
[5] = Cell cycle arrest in human ATRA-resistant NB4-LR2 cells assessed as accumulation of cells at sub-G1 phase at 0.5 uM incubated for 24 hrs by DAPI staining based flow cytometric analysis (reference value: 12 %)
[6] = Cell cycle arrest in human ATRA-resistant NB4-LR2 cells assessed as accumulation of cells at G0/G1 phase at 1 uM incubated for 24 hrs by DAPI staining based flow cytometric analysis (reference value: 42 %)
[7] = Cell cycle arrest in human ATRA-resistant NB4-LR2 cells assessed as accumulation of cells at sub-G1 phase at 1 uM incubated for 24 hrs by DAPI staining based flow cytometric analysis (reference value: 12 %)
NB-4 [8] = assay: Cell cycle arrest in human NB4 cells assessed as accumulation of cells at G2/M phase at 2 uM incubated for 3 hrs by DAPI staining based flow cytometric analysis (reference value: 21 %)
[9] = Cell cycle arrest in human ATRA-resistant NB4-LR2 cells assessed as accumulation of cells at G0/G1 phase at 2 uM incubated for 12 hrs by DAPI staining based flow cytometric analysis (reference value: 57 %)
NB-4 [10] = assay: Cell cycle arrest in human NB4 cells transfected with pLVX-shRNA2-negative control assessed as accumulation of cells at sub-G1 phase at 1 uM incubated for 12 hrs by DAPI staining based flow cytometric analysis (reference value: 4 %)
NB-4 [11] = assay: Cell cycle arrest in human NB4 cells transfected with pLVX-shRXRalpha plasmid assessed as accumulation of cells at G0/G1 phase at 2 uM incubated for 12 hrs by DAPI staining based flow cytometric analysis (reference value: 53 %)
NB-4 [12] = assay: Induction of apoptosis in human NB4 cells assessed as early apoptotic cells at 1 uM incubated for 24 hrs by Annexin V-FITC/PI staining based flow cytometric analysis (reference value: 1.77 %)

SMILES	Activity (ATRA-resistant NB4-LR2)	Activity (NB-4 [1])	Activity (NB-4 [2])	Activity (NB-4 [3])	Activity (NB-4 [4])	Activity [5]	Activity [6]	Activity [7]	Activity (NB-4 [8])	Activity [9]	Activity (NB-4 [10])	Activity (NB-4 [11])	Activity (NB-4 [12])
Cc1cc2c(cc1C(=O)/C(Br)=C\c1ccc(C(=O)O)cc1)C(C)(C)CCC2(C)C	Active	Active											
Cc1cc2c(cc1C(=O)/C(Br)=C/c1ccc(C(=O)O)cc1)C(C)(C)CCC2(C)C			10%	35%	37%	18%	32%	20%	28%	36%	7%	40%	19.18%

Reference: ChEMBL document CHEMBL6134780, “Halogenated retinoid derivatives as dual RARα and RXRα modulators for treating acute promyelocytic leukemia cells” (Eur J Med Chem, 2024)
